# Results taken from article PMC11876772 (Materials Today Bio, 2025).
# Columns and labels:
# [1] = test system: TLR7/MyD88/NF-кB and MAPK pathways in BMDCs; type: cell-based, ICR mice
# in vitro = details: chicken
structure (smiles),measurement,setting,value
"CC(C)Cn1cnc2c(N)nc3ccccc3c21 [IMQ, imiquimod]",protein expression of TLR7 and MyD88 compared with un-treated BMDCs,[1],induced the high protein expression of TLR7 (P < 0.001) and MyD88 (P < 0.001)
same,hemolysis,in vitro,~37.5%
